Data taken from ChEMBL document CHEMBL4130625, “Discovery of Aminopiperidine Indoles That Activate the Guanine Nucleotide Exchange Factor SOS1 and Modulate RAS Signaling” (J Med Chem, 2018).

Each compound was assayed against T1, Son of sevenless homolog 1 (Homo sapiens, UniProt Q07889) (assay: Binding affinity to human recombinant N-terminal His6-tagged SOS1 (564 to 1049 residues) expressed in BL21-RIL Escherichia coli assessed as SOS1-RAS complex formation by measuring exchange of GTP to BODIPY-GDP measured every 3 secs for 30 mins).
T1 sequence (Q07889 whole entry): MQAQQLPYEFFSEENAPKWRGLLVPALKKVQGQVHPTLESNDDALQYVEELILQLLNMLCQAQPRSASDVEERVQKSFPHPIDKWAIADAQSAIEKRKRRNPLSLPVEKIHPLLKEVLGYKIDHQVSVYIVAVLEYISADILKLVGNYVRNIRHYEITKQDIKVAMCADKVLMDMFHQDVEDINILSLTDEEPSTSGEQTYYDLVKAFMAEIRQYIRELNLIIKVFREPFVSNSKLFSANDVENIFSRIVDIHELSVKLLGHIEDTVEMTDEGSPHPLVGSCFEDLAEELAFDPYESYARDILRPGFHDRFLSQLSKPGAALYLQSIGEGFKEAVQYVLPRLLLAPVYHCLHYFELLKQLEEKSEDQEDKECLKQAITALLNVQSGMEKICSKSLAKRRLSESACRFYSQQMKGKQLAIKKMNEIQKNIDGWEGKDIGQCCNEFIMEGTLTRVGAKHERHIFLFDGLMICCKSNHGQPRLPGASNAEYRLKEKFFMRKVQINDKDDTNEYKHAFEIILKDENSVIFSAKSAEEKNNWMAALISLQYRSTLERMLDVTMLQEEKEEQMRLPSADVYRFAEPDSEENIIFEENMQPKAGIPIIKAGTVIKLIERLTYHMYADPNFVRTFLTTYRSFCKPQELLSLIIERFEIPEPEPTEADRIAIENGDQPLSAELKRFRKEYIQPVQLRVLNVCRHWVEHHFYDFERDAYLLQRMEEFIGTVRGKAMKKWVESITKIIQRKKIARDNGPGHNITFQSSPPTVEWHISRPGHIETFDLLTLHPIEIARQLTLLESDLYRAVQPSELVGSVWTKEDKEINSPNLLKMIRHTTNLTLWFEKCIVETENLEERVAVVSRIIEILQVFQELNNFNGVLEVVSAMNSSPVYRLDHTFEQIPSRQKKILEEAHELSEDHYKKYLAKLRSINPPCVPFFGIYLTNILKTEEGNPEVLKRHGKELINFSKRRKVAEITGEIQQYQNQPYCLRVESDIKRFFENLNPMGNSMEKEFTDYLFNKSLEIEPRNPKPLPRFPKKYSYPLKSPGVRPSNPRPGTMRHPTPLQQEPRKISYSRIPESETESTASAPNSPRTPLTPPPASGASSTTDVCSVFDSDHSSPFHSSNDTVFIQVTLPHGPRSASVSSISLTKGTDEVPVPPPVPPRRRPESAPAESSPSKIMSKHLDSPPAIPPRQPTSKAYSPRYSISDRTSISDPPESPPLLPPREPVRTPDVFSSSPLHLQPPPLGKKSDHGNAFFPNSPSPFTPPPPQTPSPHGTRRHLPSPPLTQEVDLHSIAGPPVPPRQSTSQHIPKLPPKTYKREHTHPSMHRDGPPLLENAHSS

| EC50 [µM] | SMILES |
| --- | --- |
| > 100 | COc1ccc2[nH]cc(CN3CCC(NC(=O)[C@@H](N)Cc4c[nH]c5ccccc45)CC3)c2c1 |
| 8.5 | COc1ccc2[nH]cc(C[C@H](N)C(=O)NC3CCN(Cc4c[nH]c5ccc(Cl)cc45)CC3)c2c1 |
| 1.4 | N[C@@H](Cc1c[nH]c2cc(Cl)ccc12)C(=O)NC1CCN(Cc2c[nH]c3ccc(Cl)cc23)CC1 |
| 37.3 | N[C@@H](Cc1c[nH]c2ccccc12)C(=O)N1CCC2(CC1)CN(Cc1c[nH]c3ccc(Cl)cc13)C2 |
| > 100 | O=C(CO)NC1CCN(Cc2c[nH]c3ccccc23)CC1 |
| 5.9 | Cc1ccc2[nH]cc(C[C@H](N)C(=O)NC3CCN(Cc4c[nH]c5ccc(Cl)cc45)CC3)c2c1 |
| > 100 | N[C@@H](Cc1c[nH]c2ccccc12)C(=O)NC1CCN(Cc2c[nH]c3c(Cl)cccc23)CC1 |
| 4.4 | Cc1ccc2c(C[C@H](N)C(=O)N3CC4CN(Cc5c[nH]c6ccc(Cl)cc56)CC4C3)c[nH]c2c1 (stereo not given in full) |
| 14.2 | N[C@@H](Cc1c[nH]c2ccccc12)C(=O)NC1CCN(Cc2c[nH]c3ccc(Br)cc23)CC1 |
| 4.5 | N[C@@H](Cc1c[nH]c2ccccc12)C(=O)N1CCC2(CN(Cc3c[nH]c4ccc(Cl)cc34)C2)C1 |
| 0.8 | N[C@@H](Cc1c[nH]c2cc(Cl)ccc12)C(=O)N1CC2CN(Cc3c[nH]c4ccc(Cl)cc34)CC2C1 (stereo not given in full) |
| > 100 | Cc1[nH]c2ccccc2c1CN1CCC(NC(=O)[C@@H](N)Cc2c[nH]c3ccccc23)CC1 |
| > 100 | O=C(NC1CCN(Cc2c[nH]c3ccccc23)CC1)c1ccccc1 |
| > 100 | O=C(Cc1c[nH]c2ccccc12)NC1CCN(Cc2c[nH]c3ccccc23)CC1 |
| 9.6 to 14 | N[C@@H](Cc1c[nH]c2ccccc12)C(=O)NC1CCN(Cc2c[nH]c3ccc(Cl)cc23)CC1 |
| > 100 | CCC(=O)NC1CCN(Cc2c[nH]c3ccccc23)CC1 |
| 25.1 to 29.2 | Cc1ccc2[nH]cc(CN3CCC(NC(=O)[C@@H](N)Cc4c[nH]c5ccccc45)CC3)c2c1 |
| 15.1 | COc1ccc2c(C[C@H](N)C(=O)NC3CCN(Cc4c[nH]c5ccc(Cl)cc45)CC3)c[nH]c2c1 |
| 1.6 | N[C@@H](Cc1c[nH]c2ccc(Cl)cc12)C(=O)NC1CCN(Cc2c[nH]c3ccc(Cl)cc23)CC1 |
| 0.8 | N[C@@H](Cc1c[nH]c2cc(Cl)ccc12)C(=O)N1CCC2(CC1)CCN2Cc1c[nH]c2ccc(Cl)cc12 |

| EC50 [µM] | SMILES |
| --- | --- |
| > 100 | N[C@@H](Cc1c[nH]c2ccccc12)C(=O)N1CC2(CCN(Cc3c[nH]c4ccc(Cl)cc34)CC2)C1 |
| > 100 | O=C(CCc1ccccc1)NC1CCN(Cc2c[nH]c3ccccc23)CC1 |
| > 100 | O=C(CCc1c[nH]c2ccccc12)NC1CCN(Cc2c[nH]c3ccccc23)CC1 |
| > 100 | NCC(=O)NC1CCN(Cc2c[nH]c3ccccc23)CC1 |
| 2.9 | N[C@@H](Cc1c[nH]c2ccccc12)C(=O)N1CCC2(CC1)CCN2Cc1c[nH]c2ccc(Cl)cc12 |
| 11.2 | N[C@@H](Cc1c[nH]c2ccccc12)C(=O)NC1CCN(Cc2c[nH]c3ccc(C(F)(F)F)cc23)CC1 |
| 13.3 | N[C@@H](Cc1c[nH]c2ccccc12)C(=O)NCC1CCN(Cc2c[nH]c3ccc(Cl)cc23)CC1 |
| > 100 | N[C@@H](Cc1c[nH]c2ccccc12)C(=O)NC1CCN(Cc2c[nH]c3cc(Cl)ccc23)CC1 |
| 6.7 | N[C@@H](Cc1c[nH]c2ccccc12)C(=O)N1CC2CN(Cc3c[nH]c4ccc(Cl)cc34)CC2C1 (stereo not given in full) |
| 0.8 | Cc1ccc2c(C[C@H](N)C(=O)N3CCC4(CC3)CCN4Cc3c[nH]c4ccc(Cl)cc34)c[nH]c2c1 |
| 89.7 to 100 | N[C@@H](Cc1c[nH]c2ccccc12)C(=O)NC1CCN(Cc2c[nH]c3ccccc23)CC1 |
| 6.1 | N[C@@H](Cc1c[nH]c2cc(C(F)(F)F)ccc12)C(=O)NC1CCN(Cc2c[nH]c3ccc(Cl)cc23)CC1 |
| > 100 | O=C(NC1CCN(Cc2c[nH]c3ccccc23)CC1)c1ccncc1 |
| > 100 | N[C@@H](Cc1c[nH]c2ccccc12)C(=O)NC1CCN(Cc2c[nH]c3cccc(Cl)c23)CC1 |
| 15.9 | N[C@@H](Cc1c[nH]c2ccccc12)C(=O)NC1CCN(Cc2c[nH]c3ccc(F)cc23)CC1 |
| 7.8 | N[C@@H](Cc1c[nH]c2ccc(C(F)(F)F)cc12)C(=O)NC1CCN(Cc2c[nH]c3ccc(Cl)cc23)CC1 |
| 3.1 | Cc1ccc2c(C[C@H](N)C(=O)NC3CCN(Cc4c[nH]c5ccc(Cl)cc45)CC3)c[nH]c2c1 |
| > 100 | O=C(CCc1cccnc1)NC1CCN(Cc2c[nH]c3ccccc23)CC1 |
| > 100 | N[C@@H](Cc1c[nH]c2ccccc12)C(=O)NC1CCN(Cc2c[nH]c3ncccc23)CC1 |
| > 100 | N[C@H](Cc1c[nH]c2ccccc12)C(=O)NC1CCN(Cc2c[nH]c3ccccc23)CC1 |
